{"source": "paper PMC11519904", "about": "“Comprehensive Cell Biological Investigation of Cytochalasin B Derivatives with Distinct Activities on the Actin Network” (Journal of Natural Products, 2024)", "key": {"[1]": {"system": "glucose carrier in human erythrocytes", "conditions": "cited from earlier work"}, "[2]": {"assay": "Microextraction of compounds from medium after cell exposure (conversion to 2)", "format": "in vitro ADME, human", "conditions": "for conversion to 2 after 1 h: 1 h cell exposure (data not shown)", "experimental": "[…] Therefore, cells were seeded and treated with 5 × IC50 concentrations, as already described. […] After evaporation of EtOAc, the dried extracts were diluted in methanol (50 μL) and measured with a high-pressure liquid chromatography system coupled to a diode-array UV/vis detector conjugated with an electrospray ionization mass spectrometer, using an UltiMate 3000 Series uHPLC (Thermo Fisher Scientific) utilizing a C18 Acquity UPLC BEH column (2.1 × 50 mm, 1.7 μm; Waters, Milford, USA) connected to an amaZon speed ESI-Iontrap-MS (Bruker, Billerica, MA, USA). Spectra were analyzed using Bruker Compass DataAnalysis 4.4 SR1."}, "U-2OS cells": {"system": "U-2OS cells", "assay": "Cell proliferation assay (Incucyte), 24 h treatment and 47 h recovery", "format": "cell-based, human", "conditions": "24 h 5 x IC50 treatment", "experimental": "U-2OS cells were seeded into fibronectin-coated (25 μg/mL) 96-well plate wells at densities of 3700 cells/well and allowed to spread overnight at 37 °C and 7.5% CO2. Cells were treated with 5 × IC50 concentrations of desired compounds for 24 h, washed twice with prewarmed PBS, and cultured in complete medium for further 47 h. Cells were recorded immediately after compound addition over the course of the experiment using an Incucyte S3 live-cell analysis system (Sartorius, Göttingen, Germany) with a 20 × objective at 37 °C and 5% CO2. Three phase contrast images per well and three wells per treatment were captured every hour for 71 h. The quantification of phase object counts was accomplished with the Adherent Cell-by-Cell analysis module of the IncuCyte S3 Live Cell Analysis Software and normalized to the average, respective initial phase contrast count. Graphical presentation of the data and ordinary one-way ANOVA followed by Dunnett’s multiple comparisons test was performed using GraphPad Prism version 8.4.3 for Windows, GraphPad Software (Boston, MA, USA, www.graphpad.com)."}, "[3]": {"system": "filamentous actin (F-actin) in U-2OS wild type (wt) cells", "assay": "Actin disruption assay in U-2OS cells (phalloidin staining)", "format": "cell-based, human", "conditions": "for effect on F-actin network, high dose 1 h: 5 x IC50 (L929), compared to control; for effect on actin and nuclei number, high dose 24 h: 5 x IC50, 24 h, differences between 1 and 24 h treatment", "experimental": "For this, the human osteosarcoma cell line U-2OS was treated using concentrations estimated based on previously determined IC50 values in murine L929 fibroblasts (Table 1), referred to as low dose (1 × IC50), and a 5-fold concentration, referred to as high dose (5 × IC50). Reorganization of the F-actin network was also investigated upon high dose treatment, followed by washout and a 1 h recovery phase in fresh medium. The impact on F-actin network organization was visualized using fluorescently labeled phalloidin (Figure 2). […] In addition, the effects on F-actin structures observed upon high dose treatment of all compounds were fully reversible after a 1 h recovery time (Figure 2m–q).\nThe respective previously determined IC50 values in L929 were used to calculate the treatment concentration (1 × IC50: low dose; 5 × IC50: high dose).[37] DMSO was used as the vehicle control, corresponding to the highest compound volume used in the assay. Coverslips were coated with 25 μg/mL fibronectin (Roche, Mannheim, Germany) diluted 1:40 in phosphate buffered saline (PBS, pH 7.4, Life Technologies), and cells were seeded at a density of 20,000 cells and allowed to spread overnight. CO2-equilibrated culture medium was spiked with the desired compound and DMSO, respectively, in the above-mentioned concentration, and cells were treated with prepared medium for 1 h under cell culture conditions. For long-term experiments, the treatment phase was extended to 24 h. Cells were washed once and fixed afterward using 4% prewarmed paraformaldehyde (PFA) supplied in PBS for 20 min at 37 °C, followed by three additional washing steps with prewarmed PBS buffer. In addition, the reversibility of high dose effects on F-actin network organization was investigated by a washout procedure including three times prewarmed PBS wash steps prior to the addition of fresh medium and a recovery time of 1 h before fixation. In the case of 24 h treatments, the recovery phase was extended to 47 h. Cells were permeabilized with 0.1% Triton X-100 (Bio-Rad Laboratories, Hercules, CA, USA) in PBS buffer for 1 min at room temperature, washed three times with PBS, and stained for F-actin using ATTO-594-coupled phalloidin (ATTO-Tec, Siegen, Germany) diluted in PBS buffer (1:100) for 1 h at room temperature. Coverslips were washed thrice in PBS and mounted in ProLong Diamond antifade mountant (Invitrogen) containing DAPI to probe for nuclear DNA. Cells were recorded using an inverted microscope (Nikon Eclipse Ti2, Tokyo, Japan) equipped with a 60 times Nikon oil immersion objective (Plan Apofluar, 1.4 NA), a pE-4000 (CoolLED, Andover, UK) as light source, and a pco.edge back-illuminated sCMOS camera (Excelitas Technologies, Mississauga, ON, Canada). The microscopy system was operated by and images were recorded with NIS (Nikon) and processed with ImageJ (NIH, Bethesda, MD, USA)."}, "[4]": {"system": "Schizosaccharomyces pombe (DSM 70572)", "assay": "Serial dilution assay (MIC), S. pombe", "format": "cell-based", "conditions": "DSM70572, growth inhibition at 24 h, read-out: MIC against S. pombe", "experimental": "Serial dilutions of compounds were prepared as triplicates in sterile U-bottom-shaped 96-well plates (Corning, USA). Mueller-Hinton broth (MHB) medium was used for bacteria, and YMG medium was used for filamentous fungi and yeasts. The selected organisms represent a broad spectrum of pathogens of clinical interest, as well as sensitive indicator strains (Gram-positive bacteria: Bacillus subtilis (DSM 10), Staphylococcus aureus (DSM 346), Mycobacterium smegmatis (ATCC 7000084); Gram-negative bacteria: Acinetobacter baumannii (DSM 30008), Chromobacterium violaceum (DSM 30191), Escherichia coli (DSM 1116), Pseudomonas aeruginosa (PA 14); fungi and yeast: Schizosaccharomyces pombe (DSM 70572), Pichia anomala (DSM 6766), Mucor hiemalis (DSM 2656), Candida albicans (DSM 1665), Rhodotorula glutinis (DSM 10134)).\nThe compounds were dissolved in MeOH (1 mg/mL), added to the bacterial suspension, and diluted to the final concentrations. The plate was incubated at 37 °C under static conditions. Growth inhibition was assessed at 24 h. MeOH was used as negative control. […]"}}, "note": "Entries after “also recorded” stand apart in the source; their conditions may differ.", "data": [{"compound": "C=C1[C@@H](C)[C@H]2[C@H](Cc3ccccc3)NC(=O)[C@]23OC(=O)/C=C/[C@H](O)CCC[C@@H](C)C/C=C/[C@H]3[C@@H]1OC(C)=O", "note": "[Compound 3, 7-O-acetyl cytochalasin B]", "values": [{"measurement": "binding to site I of the glucose carrier", "setting": "[1]; human erythrocyte membranes ref 30", "result": "able to bind site I"}, {"measurement": "inhibition of glucose transport", "setting": "[1]; human erythrocytes ref 29, 30", "result": "inhibits glucose transport"}, {"measurement": "conversion to 2 / decomposition after 24 h cell exposure", "setting": "[2]; medium re-extracted after 24 h, 5 x IC50, HPLC-UV-MS", "result": "no decomposition"}, {"measurement": "cell proliferation / recovery after washout", "setting": "U-2OS cells", "result": "significantly diminished; also recorded: completely abolished"}, {"measurement": "effect on F-actin network, high dose 1 h", "setting": "[3]; 1 h", "result": "no such structures; also recorded: no effect"}, {"measurement": "effect on actin and nuclei number, high dose 24 h", "setting": "[3]", "result": "+ actin disruption; also recorded: altered actin structures, however without inducing multinucleation"}]}, {"compound": "C=C1[C@@H](C)[C@H]2[C@H](Cc3ccccc3)N(C(C)=O)C(=O)[C@]23OC(=O)/C=C/[C@H](O)CCC[C@@H](C)C/C=C/[C@H]3[C@@H]1O", "note": "[Compound 5, N-acetyl cytochalasin B]", "values": [{"measurement": "conversion to 2 after 1 h", "setting": "[2]", "result": "little conversion"}, {"measurement": "effect on F-actin network, high dose 1 h", "setting": "[3]; 1 h", "result": "only slight; also recorded: moderate effects"}, {"measurement": "effect on actin and nuclei number, high dose 24 h", "setting": "[3]", "result": "+ multinucleation actin disruption"}]}, {"compound": "C=C1[C@@H](C)[C@H]2[C@H](Cc3ccccc3)NC(=O)[C@]23OC(=O)/C=C/[C@H](OC(C)=O)CCC[C@@H](C)C/C=C/[C@H]3[C@@H]1O", "note": "[Compound 6, 20-O-acetyl cytochalasin B]", "values": [{"measurement": "MIC", "setting": "[4]", "result": 33.3, "unit": "µg/mL"}, {"measurement": "conversion to 2 after 1 h", "setting": "[2]", "result": "not detected"}, {"measurement": "effect on F-actin network, low dose", "setting": "[3]; 1 x IC50 (L929), 1 h", "result": "partially led to compromised lamellipodia and a reduction of intermittent, cytoplasmic F-actin"}, {"measurement": "effect on F-actin network, high dose 1 h", "setting": "[3]; 1 h", "result": "complete collapse of the F-actin network; also recorded: actin disruption"}, {"measurement": "effect on actin and nuclei number, high dose 24 h", "setting": "[3]", "result": "+ multinucleation"}]}]}
